In patent US6329502A, “β-amino-α-hydroxycarboxylic acid derivatives and HIV protease inhibitors” (priority 1990, dated 2001):

biological target: recombinant HIV protease (Human immunodeficiency virus type 1 group M subtype B, UniProt P12497); details: inhibitor 5 μM (final concentration), 2.0 μg enzyme

With `CC[C@H](C)[C@H](NC(=O)[C@@H]1CCCN1C(=O)[C@@H](O)[C@H](Cc1ccccc1)NC(=O)[C@H](CC(N)=O)NC(=O)OCc1ccccc1)C(=O)NCC1CCCCC1` [Example 32, Benzyloxycarbonyl-Asn-(2S,3S)-AHPBA-Pro-Ile-NH--CH2 --C6 H11] the residual enzymic activity was 11.0%.

biological target: T1, chemically synthesized HIV protease (Human immunodeficiency virus type 1 group M subtype B, UniProt P12497, C555A/C583A); type: biochemical; details: inhibitor 5 μM (final concentration)
T1 construct: The HIV protease was chemically synthesized; made in house; host or cells: chemical peptide synthesis, no expression host
Protocol: The HIV protease was chemically synthesized by replacement of two cysteine residues in the natural sequence [Science, 230, 349 (1985)] with alanine residues. The reaction mixture contained 100 mM MES buffer (pH 5.5), 40 mM of substrate (Ac-[…]NH2 trifluoro-acetate), inhibitors at varying concentrations dissolved in DMSO and 9.2 μg of the HIV protease in a total volume of 15 μl. Incubation was carried out at 37° C. for 60 min. The reaction was started by the addition of the enzyme and terminated by 15 μl of acetonitrile. The amount of a fragment peptide produced was measured by reversed-phase HPLC analysis using an internal standerd. The HPLC condition was as followes.
Solvent A: 0.1% trifluoroacetic acid aqueous solution
Gradient: B was increased in 1.0%/min from 100% of A,

`CC[C@H](C)[C@H](NC(=O)[C@@H]1CCCN1C(=O)[C@@H](O)[C@H](Cc1ccccc1)NC(=O)[C@H](CC(N)=O)NC(=O)OCc1ccccc1)C(=O)NCC1CCCCC1` [Example 32, Benzyloxycarbonyl-Asn-(2S,3S)-AHPBA-Pro-Ile-NH--CH2 --C6 H11] was tested, and the “Residual Activity (%) 5 μM” value was 4.0%.

same assay, conditions: inhibitor 1 mM

Point of comparison: `N[C@@H](Cc1ccccc1)C(=O)N[C@@H](CO)C(=O)N[C@@H](Cc1ccccc1)[C@@H](O)C(=O)NCC1CCCCC1` [Example 13, H-Phe-Ser-(2R,3S)-AHPBA-NH--CH2 --C6 H11], “Residual Activity (%) 1 mM” value 58.9%. Against it:
- CC(C)(C)OC(=O)N[C@@H](CC(N)=O)C(=O)N[C@@H](Cc1ccccc1)[C@@H](O)C(=O)NCC1CCCCC1 [Example 1, Boc-Asn-(2R,3S)-AHPBA-NH--CH2 --C6 H11] — lower, 32.8%
- CC(C)(C)OC(=O)N[C@@H](Cc1ccccc1)C(=O)N[C@@H](CC(N)=O)C(=O)N[C@@H](Cc1ccccc1)[C@@H](O)C(=O)NCC1CCCCC1 [Example 2, Boc-Phe-Asn-(2R,3S)-AHPBA-NH--CH2 --C6 H11] — lower, 19.5%
- CC(C)(C)OC(=O)N[C@@H](CC(N)=O)C(=O)N[C@@H](Cc1ccccc1)[C@H](O)C(=O)NCC1CCCCC1 [Example 3, Boc-Asn-(2S,3S)-AHPBA-NH--CH2 --C6 H11] — lower, 52.9%
- CC(C)(C)OC(=O)N[C@@H](Cc1ccccc1)C(=O)N[C@@H](CC(N)=O)C(=O)N[C@@H](Cc1ccccc1)[C@H](O)C(=O)NCC1CCCCC1 [Example 4, Boc-Phe-Asn-(2S,3S)-AHPBA-NH--CH2 --C6 H11] — lower, 20.3%
- CC(C)(C)OC(=O)N[C@@H](CO)C(=O)N[C@@H](Cc1ccccc1)[C@@H](O)C(=O)NCC1CCCCC1 [Example 5, Boc-Ser-(2R,3S)-AHPBA-NH--CH2 --C6 H11] — higher, 82.9%
- CC(C)(C)OC(=O)N[C@@H](Cc1ccccc1)C(=O)N[C@@H](CO)C(=O)N[C@@H](Cc1ccccc1)[C@@H](O)C(=O)NCC1CCCCC1 [Example 6, Boc-Phe-Ser-(2R,3S)-AHPBA-NH--CH2 --C6 H11] — lower, 33.3%
- CC(C)(C)OC(=O)N[C@@H](CO)C(=O)N[C@@H](Cc1ccccc1)[C@H](O)C(=O)NCC1CCCCC1 [Example 7, Boc-Ser-(2S,3S)-AHPBA-NH--CH2 --C6 H11] — lower, 15.6%
- CC(C)(C)OC(=O)N[C@@H](Cc1ccccc1)C(=O)N[C@@H](CO)C(=O)N[C@@H](Cc1ccccc1)[C@H](O)C(=O)NCC1CCCCC1 [Example 8, Boc-Phe-Ser(2S,3S)-AHPBA-NH--CH2 --C6 H11] — lower, 47.0%
- NC(=O)C[C@H](N)C(=O)N[C@@H](Cc1ccccc1)[C@@H](O)C(=O)NCC1CCCCC1 [Example 9, H-Asn-(2R,3S)-AHPBA-NH--CH2 --C6 H11] — higher, 92.1%
- NC(=O)C[C@H](NC(=O)[C@@H](N)Cc1ccccc1)C(=O)N[C@@H](Cc1ccccc1)[C@@H](O)C(=O)NCC1CCCCC1 [Example 10, H-Phe-Asn-(2R,3S)-AHPBA-NH--CH2 --C6 H11] — lower, 43.4%
- NC(=O)C[C@H](NC(=O)[C@@H](N)Cc1ccccc1)C(=O)N[C@@H](Cc1ccccc1)[C@H](O)C(=O)NCC1CCCCC1 [Example 11, H-Phe-Asn-(2S,3S)-AHPBA-NH--CH2 --C6 H11] — lower, 16.4%
- N[C@@H](CO)C(=O)N[C@@H](Cc1ccccc1)[C@@H](O)C(=O)NCC1CCCCC1 [Example 12, H-Ser-(2R,3S)-AHPBA-NH--CH2 --C6 H11] — higher, 89.7%
- N[C@@H](CO)C(=O)N[C@@H](Cc1ccccc1)[C@H](O)C(=O)NCC1CCCCC1 [Example 14, H-Ser-(2S,3S)-AHPBA-NH--CH2 --C6 H11] — higher, 95.5%
- N[C@@H](Cc1ccccc1)C(=O)N[C@@H](CO)C(=O)N[C@@H](Cc1ccccc1)[C@H](O)C(=O)NCC1CCCCC1 [Example 15, H-Phe-Ser-(2S,3S)-AHPBA-NH--CH2 --C6 H11] — lower, 23.8%
- CC[C@H](C)[C@H](NC(=O)[C@@H]1CCCN1C(=O)[C@@H](O)[C@H](Cc1ccccc1)NC(=O)OC(C)(C)C)C(=O)OC1CCCCC1 [Example 28, Boc-(2S,3S)-AHPBA-Pro-Ile-O--C6 H11] — higher, 63.9%
- CC[C@H](C)[C@H](NC(=O)[C@@H]1CCCN1C(=O)[C@H](O)[C@H](Cc1ccccc1)NC(=O)OC(C)(C)C)C(=O)OC1CCCCC1 [Example 29, Boc-(2R,3S)-AHPBA-Pro-Ile-O--C6 H11] — higher, 88.3%
- CC[C@H](C)[C@H](NC(=O)[C@@H]1CCCN1C(=O)[C@@H](O)[C@H](Cc1ccccc1)NC(=O)OC(C)(C)C)C(=O)NCC1CCCCC1 [Example 30, Boc-(2S,3S)-AHPBA-Pro-Ile-NH--CH2 --C6 H11] — lower, 23.4%
- CC[C@H](C)[C@H](NC(=O)[C@@H]1CCCN1C(=O)[C@H](O)[C@H](Cc1ccccc1)NC(=O)OC(C)(C)C)C(=O)NCC1CCCCC1 [Example 31, Boc-(2R,3S)-AHPBA-Pro-Ile-NH--CH2 --C6 H11] — lower, 47.4%
- Boc-(2S,3S)-AHPBA-(cHexm)Gly-Ile-NH--CH2 --C6 H11 [Example 33] — higher, 85.6%
- H-Val-Val-(2R,3S)-AHPBA-(D)-Phe-(D)-Val-(D)-Val-NH2 [Example 23] — lower, 28.3%
